Data on 1 molecule can be found in patent US11459312B2, “Sulphur substituted 3-oxo-2,3-dihydropyridazine-4-carboxamides” (Bayer Aktiengesellschaft, priority 2017, dated 2022).

Molecules are shown by their SMILES.

Assay [1] has as its target T1, AHR (Homo sapiens, UniProt P35869).
T1 sequence (P35869 11-848): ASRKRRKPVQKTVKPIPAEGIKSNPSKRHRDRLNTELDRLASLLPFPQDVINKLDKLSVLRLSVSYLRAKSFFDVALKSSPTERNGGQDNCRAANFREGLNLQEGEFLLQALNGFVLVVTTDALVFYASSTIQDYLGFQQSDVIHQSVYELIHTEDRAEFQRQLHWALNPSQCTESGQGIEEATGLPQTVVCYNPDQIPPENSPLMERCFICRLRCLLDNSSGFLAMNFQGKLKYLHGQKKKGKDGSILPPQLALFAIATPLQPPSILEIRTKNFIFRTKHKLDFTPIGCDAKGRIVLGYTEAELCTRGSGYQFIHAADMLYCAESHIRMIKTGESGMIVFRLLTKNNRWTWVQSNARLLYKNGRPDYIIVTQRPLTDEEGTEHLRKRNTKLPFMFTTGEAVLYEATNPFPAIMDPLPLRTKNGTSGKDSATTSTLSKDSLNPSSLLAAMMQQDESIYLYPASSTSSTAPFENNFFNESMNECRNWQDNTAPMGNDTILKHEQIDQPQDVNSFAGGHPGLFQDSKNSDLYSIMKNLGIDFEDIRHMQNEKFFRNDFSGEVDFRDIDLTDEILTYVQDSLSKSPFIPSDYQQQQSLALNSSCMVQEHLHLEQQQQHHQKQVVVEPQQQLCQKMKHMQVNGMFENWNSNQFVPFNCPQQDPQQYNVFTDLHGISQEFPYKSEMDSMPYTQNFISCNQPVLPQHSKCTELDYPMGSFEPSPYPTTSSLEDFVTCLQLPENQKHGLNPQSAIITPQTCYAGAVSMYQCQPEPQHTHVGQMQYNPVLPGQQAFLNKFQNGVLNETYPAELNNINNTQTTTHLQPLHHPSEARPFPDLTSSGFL
The experiment in a line: In vitro assay 3: AHR-regulated CYP1A1 expression in human cell line (U937, quantitative PCR). The assay is classed as cell-based. The conditions noted are these: human monocytic U937 cells, CYP1A1 expression induced with 200 μM KA, 6 hours, qPCR; read-out: Assay 3: Hum CYP1A1 Antagonism IC50. How it is done:
In Vitro Assay 3: AHR-Regulated CYP1A1 Expression in Human Cell Line
To assess the AHR inhibitory activity of the substances described in this application, the ability thereof to antagonize ligand-induced AHR gene regulation in a dose-dependent manner was quantified. For this purpose, quantitative PCR analysis was used to determine expression of the AHR-regulated gene CYP1A1 in a human monocytic U937 cell line upon stimulation with 200 μM KA in the presence and absence of AHR inhibitor. U937 cells were sown at a concentration of 2×10^5 cells/well in 100 μl of growth medium (RPMI 1640, 20% FCS) in 96-well microtitre plates. CYP1A1 expression was induced with 200 μM KA (positive control) in the presence or absence of the substances for 6 hours. Human U937 cells were typically incubated with eight different concentrations of the substances (1 nM, 3 nM, 10 nM, 30 nM, 100 nM, 300 nM, 1 μM and 3 μM) and analyzed in duplicate on the same microtitre plate. After stimulation, cells were lysed with Nucleic Acid Lysis Solution (#4305895, Applied Biosystems) and RNA was isolated using the 6100 Nucleic Acid Preparation Station (Applied Biosystems) and reverse-transcribed to cDNA using SuperScript VILO cDNA synthesis kit (#11754-250, Invitrogen). Unstimulated cells were used as the negative control. Taqman probes for human CYP1A1 (Hs01054797_g1) and human HPRT (Hs02800695_m1) were used to analyze fold expression of CYP1A1 of HPRT. Quantitation was performed on a Taqman SDS7900HT.
On the technique in general: Quantitative PCR measures a nucleic acid by following its amplification.

In assay [2] the target is T1, AHR. The experiment in a line: In vitro assay 1: AHR-luc transactivation assay, antagonism in human cell line (U87 glioblastoma cells, kynurenic acid prestimulated). The class given is cell-based. Set-up: U87 glioblastoma cells (ATCC) endogenously expressing AHR; host or cells: U87 glioblastoma cells, stably transfected with DRE-firefly luciferase and renilla reporter constructs only. As to conditions: firefly luciferase DRE reporter, 150 μM kynurenic acid, 20 hours, read-out: Assay 1: AHR-luc Hum Antagonism IC50.

The term IC50 denotes the point on the concentration scale where inhibition reaches its midpoint. For the molecule `O=C(N[C@@H]1CS(=O)(=O)C[C@@H]1O)c1cc(-c2ccc(C(F)(F)F)cc2)nn(-c2cccc(F)c2)c1=O` (relative stereo) [Example 13, 2-(3-fluorophenyl)-N-[(cis)-4-hydroxy-1,1-dioxidotetrahydro-thiophen-3-yl]-3-oxo-6-[4-(trifluoromethyl)phenyl]-2,3-dihydropyridazine-4-carboxamide], the IC50 at AHR [1] amounted to 18.6 nM; on AHR [2], 5.65 nM.
